Results reported in publication PMC9785777, “Antidiabetic Potential of Novel 1,3,5-Trisubstituted-2-Thioxoimidazloidin-4-One Analogues: Insights into α-Glucosidase, α-Amylase, and Antioxidant Activities” (Pharmaceuticals, 2022).
Converted amounts (≈) assume the structure as drawn.

How the values were obtained:
[1] = system: human lung fibroblast WI-38 cell line; assay: MTT cytotoxicity assay against WI-38 cells; assay type: cell-based; settings: MTT, 48 h
Experimental: (§1) Based on the promising dual inhibitory activity of this class of compounds, we next evaluated the cytotoxicity of compounds 5a and 7a against human lung fibroblast cell line WI-38 in order to gain insights into the toxicity of this class of compounds utilizing the MTT assay. In this regard, lung fibroblast cells were cultured and treated with compounds 5a and 7a for 48 h at different concentrations (1000, 250, 63, 16, and 4 µg/mL). After the cells were washed, they were treated with MTT solution and the absorption was assessed using an ELISA reader at 570 nm. As a pharmacological reference drug, Celecoxib, a well-known anti-inflammatory agent, was utilized.
(§2) The cytotoxicity of compounds 5a and 7a was assessed toward the human lung fibroblast WI-38 cell line (Sigma-Aldrich, St. Louis, MO, USA, product number 90020107) using MTT assay. The MTT test assay was performed in accordance with the previously stated procedure. MTT (3-(4,5-dimethylthiazol-2-yl)-2,5-diphenyl tetrazolium bromide; Sigma catalog no. M2128) was dissolved in PBS at 5 mg/mL and processed to eliminate the insoluble residues. Briefly, cells (10^5 cells/well) were treated for 48 h at 37 °C with compounds 5a and 7a at varied doses (1000, 250, 63, 16, and 4 µg/mL, DMSO stock solutions) in a 5% CO2 atmosphere. In our assessment, celecoxib, an inhibitor of cyclooxygenase 2, was employed as a standard reference drug. Following cell washing, MTT solution (180 µL/well) was applied to the cells and incubated at 37 °C for 4 h with shaking, and the absorbance was measured using an ELISA reader at 570 nm.

[2] = MTT cytotoxicity assay against WI-38 cells; assay type: cell-based, human; settings: human, WI-38 lung fibroblast cells; for viability at 48 h, 4 µg/mL: 4 µg/mL (log conc. 0.602); for viability at 48 h, 16 µg/mL: 16 µg/mL (log conc. 1.204); for viability at 48 h, 63 µg/mL: 63 µg/mL (log conc. 1.799); for viability at 48 h, 250 µg/mL: 250 µg/mL (log conc. 2.398); for viability at 48 h, 1000 µg/mL: 1000 µg/mL (log conc. 3); for IC50 at 48 h: MTT
Experimental: as §1, §2

SMILES | WI-38 cytotoxicity IC50 [1] [µg/mL] | viability at 48 h, 4 µg/mL [2] [%] | viability at 48 h, 16 µg/mL [2] [%] | viability at 48 h, 63 µg/mL [2] [%] | viability at 48 h, 250 µg/mL [2] [%] | viability at 48 h, 1000 µg/mL [2] [%] | IC50 at 48 h [2] [µg/mL]
COC(=O)CCN1C(=S)N(N=C(C)c2ccccc2O)C(=O)C1=Cc1ccccc1O [Compound 5a, Methyl [5-(2-hydroxybenzylidene)-4-oxo-3-(2-hydroxyphenylethylidene)amino-2-thioxoimidazolidin-1-yl] propionate] | 88.538 | 69 | 59.8 | 52.9 | 44.1 | 34.6 | 88.5 (≈ 201 µM)
COC(=O)CCN1C(=S)N(N=C(C)c2ccccc2O)C(=O)C1=Cc1ccccc1OC(C)=O [Compound 7a, Methyl [5-(2-acetoxybenzylidene)-4-oxo-3-(2-hydroxyphenylethylidene)amino-2-thioxoimidazolidin-1-yl] propionate] |  | 73 | 60.6 | 53.4 | 44.1 | 36.6 | 109 (≈ 227 µM)
